Assays:
C57BL/6J mice = experiment: Glucokinase activator in vivo screen (blood glucose after oral dosing); conditions: administered orally, 50 mg/kg, C57BL/6J mice fasted two hours; decrease in blood glucose compared to vehicle over six hours (Example B)
Method: Glucokinase Activator In Vivo Screen Protocol
C57BL/6J mice are orally dosed via gavage with Glucokinase (GK) activator at 50 mg/kg body weight following a two hour fasting period. Blood glucose determinations are made five times during the six hour post-dose study period. Mice (n=6) are weighed and fasted for a two hour period prior to oral treatment.

Compound: O=C(Nc1nccs1)C(CC1CCCC1)c1ccc(S(=O)(=O)C(F)(F)F)cc1 (stereo not drawn) [Example 11(A), 3-Cyclopentyl-N-thiazol-2-yl-2-(4-trifluoromethanesulfonyl-phenyl)-propionamide]
- glucokinase activator in vivo activity (C57BL/6J mice): excellent glucokinase activator in vivo activity
- melting point: 189 to 191 °C

Compound: O=C(Nc1ccccn1)C(CC1CCCC1)c1ccc(S(=O)(=O)C(F)(F)F)cc1 (stereo not drawn) [Example 43(A), 3-Cyclopentyl-N-pyridin-2-yl-2-(4-trifluoromethanesulfonyl-phenyl)-propionamide]
- glucokinase activator in vivo activity (C57BL/6J mice): excellent glucokinase activator in vivo activity
- melting point: 151 to 153 °C

Compound: CS(=O)(=O)c1ccc(C(CC2CCCC2)C(=O)Nc2ccccn2)cc1[N+](=O)[O-] (stereo not drawn) [Example 44, 3-Cyclopentyl-2-(4-methanesulfonyl-3-nitrophenyl)-N-pyridin-2-yl-propionamide]
- glucokinase activator in vivo activity (C57BL/6J mice): excellent glucokinase activator in vivo activity
- melting point: 92 to 95 °C

Compound: O=C(Nc1ccccn1)C(CC1CCCC1)c1ccc(Cl)c([N+](=O)[O-])c1 (stereo not drawn) [Example 65, 2-(4-Chloro-3-nitro-phenyl)-3-cyclopentyl-N-pyridin-2-yl-propionamide]
- glucokinase activator in vivo activity (C57BL/6J mice): excellent glucokinase activator in vivo activity
- melting point: 48 to 52 °C

Compound: O=C(Nc1ccccn1)C(CC1CCCC1)c1ccc(C(F)(F)F)c(F)c1 (stereo not drawn) [Example 71, 3-Cyclopentyl-2-(3-fluoro-4-trifluoromethyl-phenyl)-N-pyridin-2-yl-propionamide]
- glucokinase activator in vivo activity (C57BL/6J mice): excellent glucokinase activator in vivo activity
- melting point: 40 to 44 °C

Compound: CS(=O)(=O)c1ccc(C(CC2CCCC2)C(=O)Nc2nccs2)cc1Br (stereo not drawn) [Example 72, 2-(3-Bromo-4-methanesulfonyl-phenyl)-3-cyclopentyl-N-thiazol-2-yl-propionamide]
- glucokinase activator in vivo activity (C57BL/6J mice): excellent glucokinase activator in vivo activity
- melting point: 106 to 107 °C

Compound: CS(=O)(=O)c1ccc(C(CC2CCCC2)C(=O)Nc2ccccn2)cc1Br (stereo not drawn) [Example 73, 2-(3-Bromo-4-methanesulfonyl-phenyl)-3-cyclopentyl-N-pyridin-2-yl-propionamide]
- glucokinase activator in vivo activity (C57BL/6J mice): excellent glucokinase activator in vivo activity
- melting point: 99 to 101 °C

Compound: CS(=O)(=O)c1ccc(C(CC2CCCC2)C(=O)Nc2nccs2)cc1C#N (stereo not drawn) [Example 75, 2-(3-Cyano-4-methanesulfonyl-phenyl)-3-cyclopentyl-N-thiazol-2-yl-propionamide]
- glucokinase activator in vivo activity (C57BL/6J mice): excellent glucokinase activator in vivo activity
- melting point: 145 to 148 °C

Compound: CS(=O)(=O)c1ccc(C(CC2CCCC2)C(=O)Nc2ccccn2)cc1C#N (stereo not drawn) [Example 76, 2-(3-Cyano-4-methanesulfonyl-phenyl)-3-cyclopentyl-N-pyridin-2-yl-propionamide]
- glucokinase activator in vivo activity (C57BL/6J mice): excellent glucokinase activator in vivo activity
- melting point: 87 to 90 °C

Compound: CCS(=O)(=O)c1ccc(C(CC2CCCC2)C(=O)Nc2nccs2)cc1 (stereo not drawn) [Example 77, 3-Cyclopentyl-2-(4-ethanesulfonyl-phenyl)-N-thiazol-2-yl-propionamide]
- glucokinase activator in vivo activity (C57BL/6J mice): excellent glucokinase activator in vivo activity
- melting point: 178 to 179 °C

Compound: CS(=O)(=O)c1ccc(C(CC2CCCC2)C(=O)Nc2nccs2)cc1C(F)(F)F (stereo not drawn) [Example 89(A), 3-Cyclopentyl-2-(4-methanesulfonyl-3-trifluoromethyl-phenyl)-N-thiazol-2-yl-propionamide]
- glucokinase activator in vivo activity (C57BL/6J mice): excellent glucokinase activator in vivo activity
- melting point: 95 to 100 °C

Compound: O=C(Nc1nccs1)C(CC1CCCC1)c1ccc(OC(F)(F)F)cc1 (stereo not drawn) [Example 112, 3-Cyclopentyl-N-thiazol-2-yl-2-(4-trifluoromethoxy-phenyl)-propionamide]
- glucokinase activator in vivo activity (C57BL/6J mice): excellent glucokinase activator in vivo activity
- melting point: 168 to 170 °C

Compound: COCS(=O)(=O)c1ccc(C(CC2CCCC2)C(=O)Nc2nccs2)cc1 (stereo not drawn) [Example 125, 3-Cyclopentyl-2-(4-methoxymethanesulfonyl-phenyl)-N-thiazol-2-yl-propionamide]
- glucokinase activator in vivo activity (C57BL/6J mice): excellent glucokinase activator in vivo activity
- melting point: 157 to 160 °C

Compound: Cc1csc(NC(=O)[C@H](CC2CCCC2)c2ccc(S(C)(=O)=O)cc2)n1 [Example 128, 3-Cyclopentyl-2(R)-(4-methanesulfonyl-phenyl)-N-(4-methyl-thiazol-2-yl)-propionamide]
- glucokinase activator in vivo activity (C57BL/6J mice): excellent glucokinase activator in vivo activity
- melting point: 83 to 87 °C

Compound: Cc1cnc(NC(=O)[C@H](CC2CCCC2)c2ccc(S(C)(=O)=O)cc2)s1 [Example 129, 3-Cyclopentyl-2(R)-(4-methanesulfonyl-phenyl)-N-(5-methyl-thiazol-2-yl)-propionamide]
- glucokinase activator in vivo activity (C57BL/6J mice): excellent glucokinase activator in vivo activity
- melting point: 81 to 85 °C

Compound: CS(=O)(=O)c1ccc(C(CC2CCCC2)C(=O)Nc2ncc(Cl)s2)cc1 (stereo not drawn) [Example 130, N-(5-Chloro-thiazol-2-yl)-3-cyclopentyl-2-(4-methanesulfonyl-phenyl)-propionamide]
- glucokinase activator in vivo activity (C57BL/6J mice): excellent glucokinase activator in vivo activity
- melting point: 76 to 79 °C

Compound: CS(=O)(=O)c1ccc([C@@H](CC2CCCC2)C(=O)Nc2ncc(Cl)s2)cc1 [Example 131, N-(5-Chloro-thiazol-2-yl)-3-cyclopentyl-2(R)-(4-methanesulfonyl-phenyl)-propionamide]
- glucokinase activator in vivo activity (C57BL/6J mice): excellent glucokinase activator in vivo activity
- melting point: 83 to 88 °C

Compound: Cc1nccc(NC(=O)C(CC2CCCC2)c2ccc(S(C)(=O)=O)c(C(F)(F)F)c2)n1 (stereo not drawn) [Example 155(B)(c), 3-Cyclopentyl-2-(4-methanesulfonyl-3-trifluoromethyl-phenyl)-N-(2-methyl-pyrimidin-4-yl)-propionamide]
- glucokinase activator in vivo activity (C57BL/6J mice): excellent glucokinase activator in vivo activity

Compound: CS(=O)(=O)c1ccc([C@@H](CC2CCCC2)C(=O)Nc2ccncn2)cc1C(F)(F)F [Example 157(A), 3-Cyclopentyl-2(R)-(4-methanesulfonyl-3-trifluoromethyl-phenyl)-N-pyrimidin-4-yl-propionamide]
- glucokinase activator in vivo activity (C57BL/6J mice): excellent glucokinase activator in vivo activity
- melting point: 85 to 90 °C

Compound: CS(=O)(=O)c1ccc([C@@H](CC2CCCC2)C(=O)Nc2cnccn2)cc1C(F)(F)F [Example 157(B)(a), 3-Cyclopentyl-2(R)-(4-methanesulfonyl-3-trifluoromethyl-phenyl)-N-pyrazin-2-yl-propionamide]
- glucokinase activator in vivo activity (C57BL/6J mice): excellent glucokinase activator in vivo activity

Compound: Cc1nccc(NC(=O)[C@H](CC2CCCC2)c2ccc(S(C)(=O)=O)c(C(F)(F)F)c2)n1 [Example 157(B)(b), 3-Cyclopentyl-2(R)-(4-methanesulfonyl-3-trifluoromethyl-phenyl)-N-(2-methyl-pyrimidin-4-yl)-propionamide]
- glucokinase activator in vivo activity (C57BL/6J mice): excellent glucokinase activator in vivo activity

Source: patent publication US6610846B1, “Heteroaromatic glucokinase activators” (Hoffman-La Roche Inc., priority 1999, dated 2003)
